According to article PMC4632086, “Effects and possible mechanisms of action of acacetin on the behavior and eye morphology of Drosophila models of Alzheimer’s disease” (Scientific Reports, 2015):

How the values were obtained:
recombinant human BACE-1 = target: T1, recombinant human BACE-1 (Homo sapiens, UniProt P56817); experiment: FRET-based enzyme assay, BACE-1 inhibition; type: biochemical
T1 construct: purchased R&D Systems (Minneapolis, MN, USA)

elav < APP/BACE-1 flies [1] = experiment: Climbing assay (negative geotaxis); type: in vivo, Drosophila melanogaster; conditions: 100, 300, and 500 μM, males
Method: The climbing activity assay was performed, as described by Wang et al.[33] and Crowther et al.[34]. Groups of 20 male elav < APP/BACE-1 flies (1, 5, 10, and 15 days old), cultured in vials as stated previously, were separately placed in an empty vial conjoined with another vial on top, and manually tapped twice. After 20 s, the flies that climbed from the bottom and crossed the 9.5 cm line were counted, and the climbing index was determined as the number of flies that climbed to the top vial relative to the total number of test flies and expressed as a percentage. The controls received 0.1% DMSO. All trials were repeated five times using 20 males per replicate.

elav < APP/BACE-1 flies [2] = experiment: Lifespan assay; type: in vivo, Drosophila melanogaster; conditions: males
Method: Groups of 20 newly emerged male elav < APP/BACE-1 flies, cultured in vials as stated previously, were separately transferred to vials containing media supplemented with acacetin (100, 300, and 500 μM) every 4 days. The controls received 0.1% DMSO. The median life time (T1/2) was defined as the time when the survivor function equaled 50%, because median survivorship is a more reliable index than mean survival time, as described by Chakraborty and colleagues. All treatments were repeated 10 times using 20 males per replicate.

human APP mRNA = experiment: Real-time qRT-PCR, human APP mRNA in elav < APP/BACE-1 flies; type: in vivo, Drosophila melanogaster; conditions: 100, 300, and 500 μM; 20-day-old males; compared to vehicle
Method: Real-time qRT-PCR with SYBR Green dye was performed to determine whether acacetin affected the expression levels of the human APP and BACE-1 mRNAs in the transgenic flies. The elav < APP/BACE-1 and elav < GFP flies were cultured from the egg stage in vials, as stated previously. The controls received 0.1% DMSO only. The total RNA was extracted from 30 heads (30 mg) of male elav < APP/BACE-1 and elav < GFP flies (20 days old) using the RNeasy Mini Kit (Qiagen, Hilden, Germany) according to the manufacturer’s instructions. The residual genomic DNA was removed using RQ1 RNase-Free DNase (Promega, Fitchburg, WI, USA), and 1 μg of the total RNA from each sample was used for complementary DNA (cDNA) synthesis with an oligo (dT) 12–18 primer (Invitrogen, Carlsbad, CA, USA) according to the protocol of the SuperScript III Reverse Transcriptase Kit. Real-time qRT-PCR was performed in 96-well plates using the StepOne Plus Real-Time PCR System (Applied Biosystems, Darmstadt, Germany). […] The mRNA expression levels of the target genes were normalized to the mRNA expression level of the housekeeping gene rp 49 that encodes the Drosophila ribosomal protein 49, and analyzed by the 2^–ΔΔCT method using the StepOne Software v2.3 and DataAssist Software (Applied Biosystems). The results are expressed as the means ± SEs of duplicate samples from three independent experiments.

[3] = system: APP intracellular domain (AICD); experiment: Western blot, AICD in heads of elav < APP/BACE-1 flies; type: in vivo, Drosophila melanogaster; conditions: 20-day-old males
Method: The elav < APP/BACE-1 flies were cultured from the egg stage, as described previously. The lysates were obtained from the heads of 50 male flies (20 days old) by placing the heads in 100 μL RIPA buffer (pH 8.0) containing a 1% protease inhibitor cocktail. The controls received 0.1% DMSO. The lysates were centrifuged at 14,000 rpm for 30 min at 4 °C. The protein content of the supernatant was determined using a Bradford Protein Assay kit (Sigma-Aldrich) and BSA was used as the standard. The total proteins (30 μg/sample for APP and BACE-1 detection; 70 μg/sample for Aβ detection) were mixed with an equal volume of 5× sample buffer[81] containing 40 mM of DL-dithiothreitol, boiled for 10 min, and then loaded onto 8, 10, and 12% sodium dodecyl sulfate-polyacrylamide gels using a Mini-Protean 3 electrophoresis cell (Bio-Rad, Hercules, CA, USA) for APP, APP-CTF (APP-αCTF and APP-βCTF) and AICD, BACE-1, and Aβ detection, respectively. After electrophoresis at 110 V in 2 h, the proteins from the gels were transferred onto a polyvinyl difluoride membrane (Pall Corporation, Pensacola, FL, USA) using an electroblotting apparatus. The membrane was then blocked with 5% skim milk (BD Difco, Flanklin Lakes, NJ, USA) in PBS containing 0.1% (v/v) Tween-20 (0.1% PBS-T) at room temperature for 1 h, and further incubated overnight at 4 °C with a 1:4,000 dilution of an anti-APP C-terminal antibody to detect the cleaved APP product, a 1:1,000 dilution of anti-BACE-1, and a 1:1,000 dilution of anti-amyloid (4G8). After washing with 0.1% PBS-T three times at 10 min intervals, the membranes were further incubated for 2 h with a goat anti-rabbit IgG H&L (HRP) secondary antibody at a1:4,000 dilution for APP and BACE-1 and a goat anti-mouse lgG-HRP at a 1:5,000 dilution for β-amyloid. […] The differences in protein expression were quantified using a Molecular Imager Gel Doc XR system (Bio-Rad, Hercules, CA, USA) and normalized to actin expression on the same membrane. The results are expressed as the means ± SEs of duplicate samples from three independent experiments.

T1 sequence (P56817 46-501): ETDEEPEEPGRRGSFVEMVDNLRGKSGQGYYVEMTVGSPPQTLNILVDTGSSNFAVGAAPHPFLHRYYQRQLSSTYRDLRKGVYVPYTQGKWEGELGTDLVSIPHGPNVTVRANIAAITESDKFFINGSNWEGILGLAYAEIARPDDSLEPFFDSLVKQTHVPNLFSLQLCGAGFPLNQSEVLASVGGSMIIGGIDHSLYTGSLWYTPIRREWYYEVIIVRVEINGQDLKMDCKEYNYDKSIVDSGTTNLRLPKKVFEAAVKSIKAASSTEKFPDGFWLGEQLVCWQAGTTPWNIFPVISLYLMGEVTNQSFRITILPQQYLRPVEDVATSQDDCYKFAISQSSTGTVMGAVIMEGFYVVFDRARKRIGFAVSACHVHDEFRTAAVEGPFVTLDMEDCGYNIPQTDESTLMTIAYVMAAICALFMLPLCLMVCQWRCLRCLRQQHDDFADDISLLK

## COc1ccc(-c2cc(=O)c3c(O)cc(O)cc3o2)cc1 [acacetin]
Recombinant human BACE-1; based on IC50 values
  fold more potent inhibitor of BACE-1 than maslinic acid: 5.5 fold
  fold more potent inhibitor of BACE-1 than oleanolic acid: 4.0 fold
Recombinant human BACE-1; pH 4.5, 1 h at 25 °C, read-out: IC50, μM (95% CL)
  IC50: 88.5 µM
Recombinant human BACE-1; slope of concentration-inhibition fit, listed as Natural acacetin
  Slope ± SE: 0.4 ± 0.04
Elav < APP/BACE-1 flies [1]; 1 day postemergence, vehicle 47%
  climbing index: approximately 68%
Elav < APP/BACE-1 flies [1]; 5 days postemergence, vehicle 39%
  climbing index: 60–66%
Elav < APP/BACE-1 flies [1]; 10 days postemergence, vehicle 36%
  climbing index: 53–54%
Elav < APP/BACE-1 flies [1]; 15 days postemergence, vehicle 11%
  climbing index: 27–30%
Elav < APP/BACE-1 flies [2]; 100 μM, vehicle 26 days, elav-Gal4/+ 36 days
  median life time (T1/2): 31 days
Elav < APP/BACE-1 flies [2]; 100, 300, and 500 μM, vs vehicle-fed transgenic flies
  lifespan: did not significantly increase the lifespan
Elav < APP/BACE-1 flies [2]; 300 and 500 μM
  median life time (T1/2): did not significantly extend the T1/2
Human APP mRNA
  reduction in the APP mRNA levels: 69–82%
[3]; 100 μM
  AICD levels, % of the control levels: 68%
[3]; 300 μM
  AICD levels, % of the control levels: 27%
[3]; 500 μM
  AICD levels, % of the control levels: 37%
